Assay results reported in PMC3714282, “Pharmacometabolomics of Response to Sertraline and to Placebo in Major Depressive Disorder – Possible Role for Methoxyindole Pathway” (PLoS ONE, 2013).

System: serum metabolites (tryptophan, tyrosine, purine pathways, antioxidants)
Assay: LCECA metabolomic profiling of serum: change from baseline at week 1 and week 4 (all, responders, non-responders)
Type: in vivo, human
Excerpt: Study participants were outpatients, 18–65 years of age, from various clinical sites across the United States. […] A complete description of the inclusion and exclusion used in this study can be found in Table S1. The study protocol was developed in accordance with the principles of the Declaration of Helsinki. All patients provided written informed consent. The study was sponsored and monitored by Pfizer, Inc. Each site's institutional review board approved and oversaw the study. The primary outcome measure was the HAMD17, used to assess depressive symptom severity. Measures were gathered at baseline, and weeks 1 and 4 of treatment at the patient's visits. Serum samples were collected using standard protocol at baseline, week 1 and week 4 of treatment at the clinic visits. Whole blood was collected in serum collection tubes and inverted 5–8 times. Serum samples were allowed to clot at room temperature for 60 minutes and then centrifuged at 1,300×g for 15 minutes. Following centrifugation supernatant was frozen at −80°C until analysis.
Samples were analyzed using a liquid chromatography electrochemical array (LCECA) platform that has been extensively validated and used in our prior studies in neurodegenerative and psychiatric disorders [30]–[34]. The method includes multiple compounds from the tyrosine, tryptophan, sulfur amino acids and purine pathways, and markers of oxidative stress and protection (for the list of metabolites and abbreviations see Table 1). Levels of 5-Methoxytryptamine (5-MTPM) were measured using a gas chromatography time-of-flight-mass spectrometry (GCTOF-MS) platform. Samples were prepared for analysis as previously described. During the sample preparation, pools were created from equal volumes of subaliquots of all samples. Concentrations of metabolites in the individual samples were expressed as a percentage of the concentration of those metabolites in the averaged pool.
Data preprocessing: We first removed the metabolites that have more than 40% missing values. […] Principal components analysis (PCA; SIMCA-P+12.0) was used to identify outliers. The analysis was performed for each time point. […] Subjects with ≥3 standard deviations away from the center of data cloud within two principal components (PC's) scores scatter plot were considered outliers and were removed from further analysis.
These analyses were conducted separately for the sertraline and placebo groups. Between groups t-tests were used to compare baseline to one week and baseline to four week change scores between the sertraline and placebo groups.
Signatures of response to sertraline and placebo were identified by using paired t-tests to compare week 4 metabolite levels to baseline metabolite levels in the responders and non-responders to therapy. […] These analyses were also performed to evaluate changes in ratios of individual metabolites within (e.g., 5-HT/5-HTP) and between branches of tryptophan pathway (e.g., KYN/MEL).

[1] = after four week of treatment, non-responders
[2] = after four week of treatment, responders
[3] = after one week of treatment, non-responders
[4] = serum, four weeks, non-responders to sertraline
[5] = serum, four weeks, poor response to sertraline
[6] = serum, four weeks, responders to sertraline
[7] = serum, log-transformed concentration, after four weeks, sertraline group

`CN[C@H]1CC[C@@H](c2ccc(Cl)c(Cl)c2)c2ccccc21` [Sertraline, sertraline] was tested, and the “Change of 3-OHKY (average change of log-transformed concentration)” value [1] was 0.013, the “Change of 3-OMD (average change of log-transformed concentration)” value [1] was -0.048 and the “Change of 4-HBAC (average change of log-transformed concentration)” value [1] was 0.19. For the same compound, the “Change of 4-HPAC (average change of log-transformed concentration)” value [1] was 0.14, the “Change of 4-HPLA (average change of log-transformed concentration)” value [1] was 0.11 and the “Change of 5-HIAA (average change of log-transformed concentration)” value [1] was -0.077. The “Change of 5-HT (average change of log-transformed concentration)” value [1] was -1.6, the “Change of 5-HTP (average change of log-transformed concentration)” value [1] was 0.24 and the “Change of 5-MTPOL (average change of log-transformed concentration)” value [1] was 0.093. The “Change of 7-MXAN (average change of log-transformed concentration)” value [1] was 0.56, the “Change of ATOCO (average change of log-transformed concentration)” value [1] was 0.47 and the “Change of CYS (average change of log-transformed concentration)” value [1] was -0.014. The “Change of DIOHMAL (average change of log-transformed concentration)” value [1] was 0.25, the “Change of DOPAC (average change of log-transformed concentration)” value [1] was -0.099 and the “Change of DTOCO (average change of log-transformed concentration)” value [1] was 0.52. The “Change of GR (average change of log-transformed concentration)” value [1] was 0.31, the “Change of GRMP (average change of log-transformed concentration)” value [1] was -0.16 and the “Change of GSH (average change of log-transformed concentration)” value [1] was -0.084. The “Change of HGA (average change of log-transformed concentration)” value [1] was 0.63, the “Change of HVA (average change of log-transformed concentration)” value [1] was 0.085 and the “Change of HX (average change of log-transformed concentration)” value [1] was 0.014. For the same compound, the “Change of KYN (average change of log-transformed concentration)” value [1] was 0.066, the “Change of LD (average change of log-transformed concentration)” value [1] was 0.35 and the “Change of MEL (average change of log-transformed concentration)” value [1] was 0.26. The “Change of METH (average change of log-transformed concentration)” value [1] was 0.3, the “Change of MHPG (average change of log-transformed concentration)” value [1] was -0.28 and the “Change of NA-5-HT (average change of log-transformed concentration)” value [1] was 0.0044. For the same compound, the “Change of TRP (average change of log-transformed concentration)” value [1] was 0.11, the “Change of TRPOL (average change of log-transformed concentration)” value [1] was 0.053 and the “Change of TYR (average change of log-transformed concentration)” value [1] was -0.11. The “Change of UA (average change of log-transformed concentration)” value [1] was -0.095, the “Change of VMA (average change of log-transformed concentration)” value [1] was 0.058 and the “Change of XAN (average change of log-transformed concentration)” value [1] was -0.19. For the same compound, the “Change of XANTH (average change of log-transformed concentration)” value [1] was 0.098, the “Change of 3-OHKY (average change of log-transformed concentration)” value [2] was 0.071 and the “Change of 3-OMD (average change of log-transformed concentration)” value [2] was 0.19. For the same compound, the “Change of 4-HBAC (average change of log-transformed concentration)” value [2] was 0.07, the “Change of 4-HPAC (average change of log-transformed concentration)” value [2] was 0.37 and the “Change of 4-HPLA (average change of log-transformed concentration)” value [2] was 0.14. For the same compound, the “Change of 5-HIAA (average change of log-transformed concentration)” value [2] was -0.046, the “Change of 5-HT (average change of log-transformed concentration)” value [2] was -2.2 and the “Change of 5-HTP (average change of log-transformed concentration)” value [2] was 0.014. For the same compound, the “Change of 5-MTPOL (average change of log-transformed concentration)” value [2] was 0.17, the “Change of 7-MXAN (average change of log-transformed concentration)” value [2] was -0.32 and the “Change of ATOCO (average change of log-transformed concentration)” value [2] was 0.76. For the same compound, the “Change of CYS (average change of log-transformed concentration)” value [2] was 0.0094, the “Change of DIOHMAL (average change of log-transformed concentration)” value [2] was 0.47 and the “Change of DOPAC (average change of log-transformed concentration)” value [2] was 0.058. The “Change of DTOCO (average change of log-transformed concentration)” value [2] was 0.88, the “Change of GR (average change of log-transformed concentration)” value [2] was -0.26 and the “Change of GRMP (average change of log-transformed concentration)” value [2] was 0.23. The “Change of GSH (average change of log-transformed concentration)” value [2] was 0.096, the “Change of HGA (average change of log-transformed concentration)” value [2] was 0.21 and the “Change of HVA (average change of log-transformed concentration)” value [2] was 0.12. The “Change of HX (average change of log-transformed concentration)” value [2] was -0.022, the “Change of KYN (average change of log-transformed concentration)” value [2] was 0.027 and the “Change of LD (average change of log-transformed concentration)” value [2] was -0.069. The “Change of MEL (average change of log-transformed concentration)” value [2] was 0.68, the “Change of METH (average change of log-transformed concentration)” value [2] was 0.12 and the “Change of MHPG (average change of log-transformed concentration)” value [2] was -0.16. The “Change of NA-5-HT (average change of log-transformed concentration)” value [2] was 0.071, the “Change of TRP (average change of log-transformed concentration)” value [2] was 0.041 and the “Change of TRPOL (average change of log-transformed concentration)” value [2] was 0.068. For the same compound, the “Change of TYR (average change of log-transformed concentration)” value [2] was 0.14, the “Change of UA (average change of log-transformed concentration)” value [2] was -0.027 and the “Change of VMA (average change of log-transformed concentration)” value [2] was -0.077. For the same compound, the “Change of XAN (average change of log-transformed concentration)” value [2] was -0.14, the “Change of XANTH (average change of log-transformed concentration)” value [2] was 0.0046 and the “Change of 3-OHKY (average change of log-transformed concentration)” value [3] was -0.11. For the same compound, the “Change of 3-OMD (average change of log-transformed concentration)” value [3] was -0.082, the “Change of 4-HBAC (average change of log-transformed concentration)” value [3] was -0.44 and the “Change of 4-HPAC (average change of log-transformed concentration)” value [3] was 0.18. For the same compound, the “Change of 4-HPLA (average change of log-transformed concentration)” value [3] was 0.055, the “Change of 5-HIAA (average change of log-transformed concentration)” value [3] was -0.19 and the “Change of 5-HT (average change of log-transformed concentration)” value [3] was -0.72. The “Change of 5-HTP (average change of log-transformed concentration)” value [3] was -0.14, the “Change of 5-MTPOL (average change of log-transformed concentration)” value [3] was -0.027 and the “Change of 7-MXAN (average change of log-transformed concentration)” value [3] was 0.16. For the same compound, the “Change of ATOCO (average change of log-transformed concentration)” value [3] was 0.084, the “Change of CYS (average change of log-transformed concentration)” value [3] was -0.056 and the “Change of DIOHMAL (average change of log-transformed concentration)” value [3] was 0.17. For the same compound, the “Change of DOPAC (average change of log-transformed concentration)” value [3] was -0.18, the “Change of DTOCO (average change of log-transformed concentration)” value [3] was 0.024 and the “Change of GR (average change of log-transformed concentration)” value [3] was -0.47. The “Change of GRMP (average change of log-transformed concentration)” value [3] was -0.012, the “Change of GSH (average change of log-transformed concentration)” value [3] was -0.0084 and the “Change of HGA (average change of log-transformed concentration)” value [3] was 0.34. The “Change of HVA (average change of log-transformed concentration)” value [3] was 0.0025, the “Change of HX (average change of log-transformed concentration)” value [3] was -0.066 and the “Change of KYN (average change of log-transformed concentration)” value [3] was -0.11. The “Change of LD (average change of log-transformed concentration)” value [3] was 0.053, the “Change of MEL (average change of log-transformed concentration)” value [3] was 0.3 and the “Change of METH (average change of log-transformed concentration)” value [3] was 0.16. The “Change of MHPG (average change of log-transformed concentration)” value [3] was -0.072, the “Change of NA-5-HT (average change of log-transformed concentration)” value [3] was 0.027 and the “Change of TRP (average change of log-transformed concentration)” value [3] was -0.022. For the same compound, the “Change of TRPOL (average change of log-transformed concentration)” value [3] was 0.0024, the “Change of TYR (average change of log-transformed concentration)” value [3] was -0.073 and the “Change of UA (average change of log-transformed concentration)” value [3] was -0.095. The “Change of VMA (average change of log-transformed concentration)” value [3] was 0.12, the “Change of XAN (average change of log-transformed concentration)” value [3] was -0.18 and the “Change of XANTH (average change of log-transformed concentration)” value [3] was 0.11. The “Change in 5-HT levels” value [4] was “significantly reduced”, the “Change in 5-MTPOL levels” value [4] was “not significantly changed” and the “Change in DIOHMAL levels” value [4] was “significantly increased”. For the same compound, the “Change in MEL levels” value [4] was “not significantly changed”, the “Change in HGA levels” value [5] was “Significant increases” and the “Change in LD levels” value [5] was “Significant increases”. For the same compound, the “Change in 4-HPAC levels” value [6] was “significantly increased”, the “Change in 5-HT levels” value [6] was “significant decrease” and the “Change in 5-MTPOL levels” value [6] was “significant increases”. The “Change in DIOHMAL levels” value [6] was “significantly increased”, the “Change in MEL levels” value [6] was “significant increases” and the “Change 3-OHKY” value [7] was 0.044. The “Change 3-OMD” value [7] was 0.079, the “Change 4-HBAC” value [7] was 0.12 and the “Change 4-HPAC” value [7] was 0.26. For the same compound, the “Change 4-HPLA” value [7] was 0.13 and the “Change 5-HIAA” value [7] was −0.06.
